According to patent US20240124422A1, “MUTANT PI3K-ALPHA INHIBITORS AND THEIR USE AS PHARMACEUTICALS” (Prelude Therapeutics Incorporated, priority 2022, published 2024):

Key:
[1] = tested on: phosphorylation of AKT on Ser473 as a readout of the PI3K pathway in T-47D (heterozygous PIK3CA H1047R) cells; assay: PI3K pathway activation assay, pAKT Ser473 HTRF, T-47D cells; assay type: cell-based; conditions: Homo sapiens, T47D, 2 h, two hours of treatment
Method in brief: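 pAKT Ser473 measured by HTRF in SKBR3 (PIK3CA WT) and T-47D (PIK3CA H1047R) cells, 4,000/well. Signal normalised to background and DMSO controls as percent inhibition.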

[2] = tested on: phosphorylation of AKT on Ser473 as a readout of the PI3K pathway in SKBR3 (PIK3CA WT) cells; assay: PI3K pathway activation assay, pAKT Ser473 HTRF, SKBR3 cells; assay type: cell-based; conditions: Homo sapiens, SK-BR-3, 2 h, two hours of treatment
Method: The inhibitory activity of compounds was evaluated by measuring phosphorylation of AKT on Ser473 as a readout of the PI3K pathway using HTRF (CisBio catalog number: 64AKSPE). These studies were conducted in the T-47D (heterozygous PIK3CA H1047R) and SKBR3 (PIK3CA WT) cell lines. Cells were maintained in a 37° C. incubator at 5% CO2 in the following media: T-47D: RPMI 1640, ATCC© Modification (Gibco, A10491-01) supplemented with 10% v/v FBS (Gibco, 26140-079), 1% penicillin streptomycin (Gibco, 15140-122), and 7.4 ug/mL insulin (MilliporeSigma, I9278); SKBR3: McCoy's 5a (Modified) Medium (Gibco, 16600-082) supplemented with 10% v/v FBS (Gibco, 26140-079). Cells were seeded in 384-well plates at a density of 4,000 cells/well. Compounds dissolved in DMSO were added using a digital dispense (D300E, Tecan) 10-point serial dilution. After two hours of treatment, cells were lysed for thirty minutes and then incubated with detection reagents per HTRF kit material and manufacturer's instructions. Fluorescence signal was measured with a multimode plate reader (Envision 2105, Perkin Elmer). Fluorescent signal was normalized to background and DMSO controls to obtain percent inhibition/activity for each compound.

SMILES	IC50 [1]	IC50 [2]
Cc1cc(C(C)Nc2ccccc2C(N)=O)c2nc(N3Cc4ccccc4C3)n(C)c(=O)c2c1 (stereo not drawn) [Example 4, 2-((1-(2-(isoindolin-2-yl)-3,6-dimethyl-4-oxo-3,4-dihydroquinazolin-8-yl)ethyl)amino)benzamide]	0.5 to 10 µM	> 10 µM
CNS(=O)(=O)c1ccccc1NC(C)c1cc(C)cc2c(=O)n(C)c(N3Cc4ccccc4C3)nc12 (stereo not drawn) [Example 7, 2-((1-(2-(isoindolin-2-yl)-3,6-dimethyl-4-oxo-3,4-dihydroquinazolin-8-yl)ethyl)amino)-N-methylbenzenesulfonamide]	0.5 to 10 µM	> 10 µM
Cc1cc(C(C)Nc2ccccc2S(C)(=O)=O)c2nc(N3Cc4ccccc4C3)n(C)c(=O)c2c1 (stereo not drawn) [Example 8, 2-(isoindolin-2-yl)-3,6-dimethyl-8-(1-((2-(methylsulfonyl)phenyl)amino)ethyl)quinazolin-4(3H)-one]	0.5 to 10 µM	> 10 µM
Cc1cc(C(C)Nc2ccccc2-c2nnn[nH]2)c2nc(N3Cc4ccccc4C3)n(C)c(=O)c2c1 (stereo not drawn) [Example 9, 8-(1-((2-(1H-tetrazol-5-yl)phenyl)amino)ethyl)-2-(isoindolin-2-yl)-3,6-dimethylquinazolin-4(3H)-one]	0.5 to 10 µM	> 10 µM
Cc1cc(C(C)Nc2ccccc2C(=O)NO)c2nc(N3Cc4ccccc4C3)n(C)c(=O)c2c1 (stereo not drawn) [Example 10, N-Hydroxy-2-((1-(2-(isoindolin-2-yl)-3,6-dimethyl-4-oxo-3,4-dihydroquinazolin-8-yl)ethyl)amino)benzamide]	0.5 to 10 µM	> 10 µM
Cc1cc(C(C)Nc2ccc(F)c(O)c2F)c2nc(N3Cc4ccccc4C3)n(C)c(=O)c2c1 (stereo not drawn) [Example 11, 8-(1-((2,4-difluoro-3-hydroxyphenyl)amino)ethyl)-2-(isoindolin-2-yl)-3,6-dimethylquinazolin-4(3H)-one]	0.5 to 10 µM	> 10 µM
COCCn1c(N2Cc3ccccc3C2)nc2c(C(C)Nc3ccccc3C(=O)O)cc(C)cc2c1=O (stereo not drawn) [Example 19, 2-((1-(2-(isoindolin-2-yl)-3-(2-methoxyethyl)-6-methyl-4-oxo-3,4-dihydroquinazolin-8-yl)ethyl)amino)benzoic acid]	0.5 to 10 µM	> 10 µM
Cc1cc(C(C)Nc2cc(C#N)ccc2C(=O)O)c2nc(N3CC4CC4C3)n(C)c(=O)c2c1 (stereo not drawn) [Example 23, 2-((1-(2-(3-azabicyclo[3.1.0]hexan-3-yl)-3,6-dimethyl-4-oxo-3,4-dihydro-quinazolin-8-yl)ethyl)amino)-4-cyanobenzoic acid]	0.5 to 10 µM	> 10 µM
Cc1cc(C(C)Nc2cccnc2C(=O)O)c2nc(N3Cc4ccccc4C3)n(C)c(=O)c2c1 (stereo not drawn) [Example 28, 3-((1-(2-(isoindolin-2-yl)-3,6-dimethyl-4-oxo-3,4-dihydroquinazolin-8-yl)ethyl)amino)picolinic acid]	0.5 to 10 µM	> 10 µM
Cc1cc(C(C)Nc2ccc(C#N)cc2C(=O)O)c2nc(N3Cc4ccccc4C3)n(C)c(=O)c2c1 (stereo not drawn) [Example 31, 5-cyano-2-((1-(2-(isoindolin-2-yl)-3,6-dimethyl-4-oxo-3,4-dihydroquinazolin-8-yl)ethyl)amino)benzoic acid]	< 0.5 µM	> 10 µM
Cc1cc(C(C)Nc2cn(C)nc2C(=O)O)c2nc(N3Cc4ccccc4C3)n(C)c(=O)c2c1 (stereo not drawn) [Example 34, 4-((1-(2-(isoindolin-2-yl)-3,6-dimethyl-4-oxo-3,4-dihydroquinazolin-8-yl)ethyl)amino)-1-methyl-1H-pyrazole-3-carboxylic acid]	0.5 to 10 µM	> 10 µM
Cc1cc(C(C)Nc2ccc(F)c(F)c2C(=O)O)c2nc(N3Cc4ccccc4C3)n(C)c(=O)c2c1 (stereo not drawn) [Example 35, 2,3-difluoro-6-((1-(2-(isoindolin-2-yl)-3,6-dimethyl-4-oxo-3,4-dihydroquinazolin-8-yl)ethyl)amino)benzoic acid]	< 0.5 µM	> 10 µM
COc1nc2c(C(C)Nc3ccccc3C(=O)O)cc(C)cc2c(=O)n1C (stereo not drawn) [Example 41, 2-[1-(2-methoxy-3,6-dimethyl-4-oxoquinazolin-8-yl)ethylamino]benzoic acid]	0.5 to 10 µM	> 10 µM
CSc1nc2c(C(C)Nc3ccccc3C(=O)O)cc(C)cc2c(=O)n1C (stereo not drawn) [Example 43, 2-[1-(3,6-dimethyl-2-methylsulfanyl-4-oxoquinazolin-8-yl)ethylamino]benzoic acid]	0.5 to 10 µM	> 10 µM
CC(=O)N1CCN(c2nc3c(C(C)Nc4ccccc4C(=O)O)cc(C)cc3c(=O)n2C)CC1 (stereo not drawn) [Example 46, 2-((1-(2-(4-acetylpiperazin-1-yl)-3,6-dimethyl-4-oxo-3,4-dihydroquinazolin-8-yl)ethyl)amino)benzoic acid]	0.5 to 10 µM	> 10 µM
Cc1cc(C(C)Nc2ccccc2C(=O)O)c2nc(N(C)C)n(C)c(=O)c2c1 (stereo not drawn) [Example 54, 2-[1-[2-(dimethylamino)-3,6-dimethyl-4-oxoquinazolin-8-yl]ethylamino]benzoic acid]	0.5 to 10 µM	> 10 µM

Other lines, results leading:

IC50 [1]	IC50 [2]	SMILES
< 0.5 µM	> 10 µM	CC(Nc1ccccc1C(=O)O)c1cc(Cl)cc2c(=O)n(C)c(N3CC4CC4C3)nc12 (single isomer, unassigned) [Example 105, 2-((1-(2-(3-Azabicyclo[3.1.0]hexan-3-yl)-6-chloro-3-methyl-4-oxo-3,4-dihydroquinazolin-8-yl)ethyl)amino)benzoic acid]
< 0.5 µM	> 10 µM	Cc1cc(C(C)Nc2ccccc2C(=O)O)c2nc(N3Cc4ccccc4C3)n(C)c(=O)c2c1 (stereo not drawn) [Example 1, 2-((1-(2-(isoindolin-2-yl)-3,6-dimethyl-4-oxo-3,4-dihydroquinazolin-8-yl)ethyl)amino)benzoic acid]
< 0.5 µM	> 10 µM	Cc1cc(C(C)Nc2ccccc2C(=O)O)c2nc(N3Cc4ccc(F)cc4C3)n(C)c(=O)c2c1 (stereo not drawn) [Example 2, 2-((1-(2-(5-fluoroisoindolin-2-yl)-3,6-dimethyl-4-oxo-3,4-dihydroquinazolin-8-yl)ethyl)amino)benzoic acid]
< 0.5 µM	> 10 µM	Cc1cc(C(C)Nc2ccccc2S(N)(=O)=O)c2nc(N3Cc4ccccc4C3)n(C)c(=O)c2c1 (stereo not drawn) [Example 6, 2-((1-(2-(isoindolin-2-yl)-3,6-dimethyl-4-oxo-3,4-dihydroquinazolin-8-yl)ethyl)amino)benzenesulfonamide]
< 0.5 µM	> 10 µM	Cc1cc(C(C)Nc2ccc(F)c(F)c2C(=O)O)c2nc(N3Cc4ccccc4C3)n(CCCF)c(=O)c2c1 (stereo not drawn) [Example 20, 2,3-difluoro-6-((1-(3-(3-fluoropropyl)-2-(isoindolin-2-yl)-6-methyl-4-oxo-3,4-dihydroquinazolin-8-yl)ethyl)amino)benzoic acid]
< 0.5 µM	> 10 µM	Cc1cc(C(C)Nc2ccccc2C(=O)O)c2nc(N3Cc4ccccc4C3)n(C(C)C)c(=O)c2c1 (stereo not drawn) [Example 21, 2-((1-(2-(isoindolin-2-yl)-3-isopropyl-6-methyl-4-oxo-3,4-dihydroquinazolin-8-yl)ethyl)amino)benzoic acid]
< 0.5 µM	> 10 µM	Cc1cc(C(C)Nc2ccccc2C(=O)O)c2nc(N3Cc4ccccc4C3)[nH]c(=O)c2c1 (stereo not drawn) [Example 22, 2-((1-(2-(isoindolin-2-yl)-6-methyl-4-oxo-3,4-dihydroquinazolin-8-yl)ethyl)amino)benzoic acid]
< 0.5 µM	> 10 µM	Cc1cc(C(C)Nc2ccccc2C(=O)O)c2nc(N3CCC4(CC4)C3)n(C)c(=O)c2c1 (stereo not drawn) [Example 39, 2-[1-[2-(5-azaspiro[2.4]heptan-5-yl)-3,6-dimethyl-4-oxoquinazolin-8-yl]ethyl-amino]benzoic acid]
< 0.5 µM	> 10 µM	Cc1cc(C(C)Nc2ccccc2C(=O)O)c2nc(N3Cc4ccccc4C3)n([C@H]3C[C@H](O)C3)c(=O)c2c1 (stereo partly drawn) [Example 48, 2-((1-(3-((1r,3r)-3-Hydroxycyclobutyl)-2-(isoindolin-2-yl)-6-methyl-4-oxo-3,4-dihydroquinazolin-8-yl)ethyl)amino)benzoic acid]
< 0.5 µM	> 10 µM	CC(Nc1ccccc1C(=O)O)c1cc(F)cc2c(=O)n(C)c(N3CC4CC4C3)nc12 (stereo not drawn) [Example 49, 2-((1-(2-(3-azabicyclo[3.1.0]hexan-3-yl)-6-fluoro-3-methyl-4-oxo-3,4-dihydro-quinazolin-8-yl)ethyl)amino)benzoic acid]
< 0.5 µM	> 10 µM	Cc1cc(C(C)Nc2ccccc2C(=O)O)c2nc(N3CCCCCC3)n(C)c(=O)c2c1 (stereo not drawn) [Example 55, 2-((1-(2-(azepan-1-yl)-3,6-dimethyl-4-oxo-3,4-dihydroquinazolin-8-yl)ethyl)amino)benzoic acid]
